# In patent US9150577B2, “Heterocyclic compounds containing an indole core” (Boehringer Ingelheim International GmbH, priority 2009, dated 2015):
# pIC50: −log10 of the molar value.
# Molecular target: Human RSK2 (Homo sapiens (Human), UniProt P51812)
# Assay: Human RSK2 assay (Kinase Glo Plus, residual ATP);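 also: recombinant human RSK2 phosphorylating a substrate peptide, 90 min at 28 °C, leftover ATP read by luminescence, RLU scaled between no-kinase background and uninhibited kinase controls, 4-parameter fit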
# Type: biochemical
# Chain of Human RSK2 (P51812 whole entry): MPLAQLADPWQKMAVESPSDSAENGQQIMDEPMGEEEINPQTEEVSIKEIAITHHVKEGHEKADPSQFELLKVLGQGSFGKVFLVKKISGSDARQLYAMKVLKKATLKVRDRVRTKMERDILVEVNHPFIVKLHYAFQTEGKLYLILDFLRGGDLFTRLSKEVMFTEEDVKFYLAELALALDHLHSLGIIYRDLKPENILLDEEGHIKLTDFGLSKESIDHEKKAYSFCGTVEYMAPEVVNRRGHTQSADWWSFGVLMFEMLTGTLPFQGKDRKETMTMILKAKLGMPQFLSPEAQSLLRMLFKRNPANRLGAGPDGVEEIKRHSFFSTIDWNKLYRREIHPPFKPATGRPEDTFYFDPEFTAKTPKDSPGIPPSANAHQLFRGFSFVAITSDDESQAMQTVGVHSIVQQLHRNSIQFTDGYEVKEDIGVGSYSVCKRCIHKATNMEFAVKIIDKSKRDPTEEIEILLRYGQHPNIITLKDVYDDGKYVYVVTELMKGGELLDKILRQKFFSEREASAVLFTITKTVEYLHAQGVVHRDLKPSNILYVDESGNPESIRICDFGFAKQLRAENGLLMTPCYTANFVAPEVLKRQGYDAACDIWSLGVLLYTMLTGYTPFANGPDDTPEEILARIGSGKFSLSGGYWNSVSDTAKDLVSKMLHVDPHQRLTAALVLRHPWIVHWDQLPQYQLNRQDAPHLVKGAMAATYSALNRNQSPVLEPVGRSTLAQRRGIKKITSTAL
row,SMILES,pIC50
1,"CCn1c(NC(=O)c2ccc3cc4n(c3c2)[C@@H](C)[C@H](C)NC4=O)nc2ccccc21 (relative stereo) [Example 80, N-(1-ethyl-1H-benzimidazol-2-yl)-trans-3,4-dimethyl-1-oxo-1,2,3,4-tetrahydropyrazino[1,2-a]indole-7-carboxamide]",8.30
2,"CC(C)n1cc(NC(=O)c2ccc3cc4n(c3c2)CCCNC4=O)cn1 [Example 25, 1-oxo-N-[1-(propan-2-yl)-1H-pyrazol-4-yl]-2,3,4,5-tetrahydro-1H-[1,4]diazepino[1,2-a]indole-8-carboxamide]",7.85
3,"Cn1c(NC(=O)c2ccc3cc4n(c3c2)C(C)(C)CNC4=O)nc2ccccc21 [Example 59, 4,4-dimethyl-N-(1-methyl-1H-benzimidazol-2-yl)-1-oxo-1,2,3,4-tetrahydropyrazino[1,2-a]indole-7-carboxamide]",9.21
4,"CC(C)(C)c1nnc(NC(=O)c2ccc3cc4n(c3c2)CCCNC4=O)s1 [Example 110, N-(5-tert-butyl-1,3,4-thiadiazol-2-yl)-1-oxo-2,3,4,5-tetrahydro-1H-[1,4]diazepino[1,2-a]indole-8-carboxamide]",7.02
5,"COCCn1cc(NC(=O)c2ccc3cc4n(c3c2)CCCNC4=O)cn1 [Example 38, N-[1-(2-methoxyethyl)-1H-pyrazol-4-yl]-1-oxo-2,3,4,5-tetrahydro-1H-[1,4]diazepino[1,2-a]indole-8-carboxamide]",7.72
6,"CS(=O)(=O)c1ccc2c(c1)nc(NC(=O)c1ccc3cc4n(c3c1)CCCNC4=O)n2CC(F)(F)F [Example 118, N-[5-(methylsulfonyl)-1-(2,2,2-trifluoroethyl)-1H-benzimidazol-2-yl]-1-oxo-2,3,4,5-tetrahydro-1H-[1,4]diazepino[1,2-a]indole-8-carboxamide]",7.74
7,"CN(C)CCCn1c(NC(=O)c2ccc3cc4n(c3c2)CC2(CCOCC2)CNC4=O)nc2ccccc21 [Example 95, N-{1-[3-(dimethylamino)propyl]-1H-benzimidazol-2-yl}-1-oxo-2,2′,3,3′,5′,6′-hexahydro-1H-spiro[1,4-diazepino[1,2-a]indole-4,4′-pyran]-8-carboxamide]",7.80
8,"Cn1ccc(NC(=O)c2ccc3cc4n(c3c2)CCCNC4=O)n1 [Example 11, N-(1-methyl-1H-pyrazol-3-yl)-1-oxo-2,3,4,5-tetrahydro-1H-[1,4]diazepino[1,2-a]indole-8-carboxamide]",6.27
9,"Cn1c(NC(=O)c2ccc3cc4n(c3c2)CC(C)(C)CNC4=O)nc2ccccc21 [Example 60, 4,4-dimethyl-N-(1-methyl-1H-benzimidazol-2-yl)-1-oxo-2,3,4,5-tetrahydro-1H-[1,4]diazepino[1,2-a]indole-8-carboxamide]",7.70
10,"CN(C)CCCn1c(NC(=O)c2ccc3cc4n(c3c2)C(C)(C)CNC4=O)nc2ccccc21 [Example 98, N-{1-[3-(dimethylamino)propyl]-1H-benzimidazol-2-yl}-4,4-dimethyl-1-oxo-1,2,3,4-tetrahydropyrazino[1,2-a]indole-7-carboxamide]",9.42
11,"N#Cc1cccc(NC(=O)c2ccc3cc4n(c3c2)CCCNC4=O)c1 [Example 6, N-(3-cyanophenyl)-1-oxo-2,3,4,5-tetrahydro-1H-[1,4]diazepino[1,2-a]indole-8-carboxamide]",6.85
12,"CC1(C)CNC(=O)c2cc3ccc(C(=O)Nc4cn[nH]c4)cc3n2C1 [Example 16, 4,4-dimethyl-1-oxo-N-(1H-pyrazol-4-yl)-2,3,4,5-tetrahydro-1H-[1,4]diazepino[1,2-a]indole-8-carboxamide]",5.60
13,"Cn1cc(NC(=O)c2ccc3cc4n(c3c2)CC2(CCC2)CNC4=O)cn1 [Example 24, N-(1-methyl-1H-pyrazol-4-yl)-1′-oxo-2′,3′-dihydro-1′H-spiro[cyclobutane-1,4′-[1,4]diazepino[1,2-a]indole]-8′-carboxamide]",6.49
14,"C[C@@H]1NC(=O)c2cc3ccc(C(=O)Nc4cnn(Cc5ccccc5)c4)cc3n2[C@H]1C (relative stereo) [Example 30, N-(1-benzyl-1H-pyrazol-4-yl)-trans-3,4-dimethyl-1-oxo-1,2,3,4-tetrahydropyrazino[1,2-a]indole-7-carboxamide]",8.00

# Results, then the compound that gave them:
row,pIC50,SMILES
1,7.41,"O=C(Nc1ccncc1)c1ccc2cc3n(c2c1)CCCNC3=O [Example 156, 1-oxo-N-(pyridin-4-yl)-2,3,4,5-tetrahydro-1H-[1,4]diazepino[1,2-a]indole-8-carboxamide]"
2,6.85,"CC(C)c1cccc(NC(=O)c2ccc3cc4n(c3c2)CCCNC4=O)c1 [Example 145, 1-oxo-N-[3-(propan-2-yl)phenyl]-2,3,4,5-tetrahydro-1H-[1,4]diazepino[1,2-a]indole-8-carboxamide]"
3,7.82,"CC1(C)CNC(=O)c2cc3ccc(C(=O)Nc4cc(-c5ccccc5)no4)cc3n21 [Example 201, 4,4-dimethyl-1-oxo-N-(3-phenyl-1,2-oxazol-5-yl)-1,2,3,4-tetrahydropyrazino[1,2-a]indole-7-carboxamide]"
4,6.24,"Cc1cc(NC(=O)c2ccc3cc4n(c3c2)[C@@H](C)[C@H](C)CNC4=O)no1 (relative stereo) [Example 169, Trans-4,5-dimethyl-N-(5-methyl-1,2-oxazol-3-yl)-1-oxo-2,3,4,5-tetrahydro-1H-[1,4]diazepino[1,2-a]indole-8-carboxamide]"
5,6.84,"Cc1cc(NC(=O)c2ccc3cc4n(c3c2)CC2(CC2)CNC4=O)no1 [Example 127, N-(5-methyl-1,2-oxazol-3-yl)-1′-oxo-2′,3′-dihydro-1′H-spiro[cyclopropane-1,4′-[1,4]diazepino[1,2-a]indole]-8′-carboxamide]"
6,7.46,"CCc1cc(NC(=O)c2ccc3cc4n(c3c2)CCCNC4=O)no1 [Example 181, N-(5-ethyl-1,2-oxazol-3-yl)-1-oxo-2,3,4,5-tetrahydro-1H-[1,4]diazepino[1,2-a]indole-8-carboxamide]"
7,6.46,"O=C(Nc1cnn(Cc2ccccc2)c1)c1ccc2cc3n(c2c1)CC1(CCNCC1)CNC3=O [Example 238, N-(1-benzyl-1H-pyrazol-4-yl)-1-oxo-2,3-dihydro-1H-spiro[1,4-diazepino[1,2-a]indole-4,4′-piperidine]-8-carboxamide]"
8,7.28,"O=C(Nc1cccc(-c2c[nH]cn2)c1)c1ccc2cc3n(c2c1)CCCNC3=O [Example 226, N-[3-(1H-imidazol-4-yl)phenyl]-1-oxo-2,3,4,5-tetrahydro-1H-[1,4]diazepino[1,2-a]indole-8-carboxamide]"
9,7.03,"O=C(Nc1cc[nH]n1)c1ccc2cc3n(c2c1)CCCNC3=O [Example 220, 1-oxo-N-(1H-pyrazol-3-yl)-2,3,4,5-tetrahydro-1H-[1,4]diazepino[1,2-a]indole-8-carboxamide]"
10,7.40,"O=C(Nc1cc(-c2ccccc2)[nH]n1)c1ccc2cc3n(c2c1)CCCNC3=O [Example 218, 1-oxo-N-(5-phenyl-1H-pyrazol-3-yl)-2,3,4,5-tetrahydro-1H-[1,4]diazepino[1,2-a]indole-8-carboxamide]"
11,6.82,"CC(C)(C)c1cc(NC(=O)c2ccc3cc4n(c3c2)CCCNC4=O)no1 [Example 175, N-(5-tert-butyl-1,2-oxazol-3-yl)-1-oxo-2,3,4,5-tetrahydro-1H-[1,4]diazepino[1,2-a]indole-8-carboxamide]"
12,9.38,"C[C@@H]1NC(=O)c2cc3ccc(C(=O)Nc4cnn(Cc5ccccc5)c4)cc3n2[C@@H]1C [Example 140, (3S,4R)-N-(1-benzyl-1H-pyrazol-4-yl)-3,4-dimethyl-1-oxo-1,2,3,4-tetrahydropyrazino[1,2-a]indole-7-carboxamide]"
13,7.52,"O=C(Nc1cc(Cc2ccccc2)on1)c1ccc2cc3n(c2c1)CCCNC3=O [Example 212, N-(5-benzyl-1,2-oxazol-3-yl)-1-oxo-2,3,4,5-tetrahydro-1H-[1,4]diazepino[1,2-a]indole-8-carboxamide]"
14,8.00,"CC1CCNC(=O)c2cc3ccc(C(=O)Nc4cnn(C)c4)cc3n21 (centres unmarked) [Example 164, 5-methyl-N-(1-methyl-1H-pyrazol-4-yl)-1-oxo-2,3,4,5-tetrahydro-1H-[1,4]diazepino[1,2-a]indole-8-carboxamide]"
15,7.57,"CC1(c2cc(NC(=O)c3ccc4cc5n(c4c3)CCCNC5=O)on2)CC1 [Example 197, N-[3-(1-methylcyclopropyl)-1,2-oxazol-5-yl]-1-oxo-2,3,4,5-tetrahydro-1H-[1,4]diazepino[1,2-a]indole-8-carboxamide]"
16,7.96,"CC1CCNC(=O)c2cc3ccc(C(=O)Nc4ccccc4C(N)=O)cc3n21 (centres unmarked) [Example 222, N-(2-carbamoylphenyl)-5-methyl-1-oxo-2,3,4,5-tetrahydro-1H-[1,4]diazepino[1,2-a]indole-8-carboxamide]"
17,7.49,"CC1CCNC(=O)c2cc3ccc(C(=O)Nc4cc(C(C)(C)C)on4)cc3n21 (centres unmarked) [Example 160, N-(5-tert-butyl-1,2-oxazol-3-yl)-5-methyl-1-oxo-2,3,4,5-tetrahydro-1H-[1,4]diazepino[1,2-a]indole-8-carboxamide]"
18,7.44,"Cc1cc(NC(=O)c2ccc3cc4n(c3c2)C(C)(C)CNC4=O)no1 [Example 126, 4,4-dimethyl-N-(5-methyl-1,2-oxazol-3-yl)-1-oxo-1,2,3,4-tetrahydropyrazino[1,2-a]indole-7-carboxamide]"
19,9.22,"CCn1c(NC(=O)c2ccc3cc4n(c3c2)C(C)CCNC4=O)nc2ccccc21 (centres unmarked) [Example 166, N-(1-ethyl-1H-benzimidazol-2-yl)-5-methyl-1-oxo-2,3,4,5-tetrahydro-1H-[1,4]diazepino[1,2-a]indole-8-carboxamide]"
20,7.52,"O=C(Nc1cc(-c2cccnc2)no1)c1ccc2cc3n(c2c1)CCCNC3=O [Example 210, 1-oxo-N-[3-(pyridin-3-yl)-1,2-oxazol-5-yl]-2,3,4,5-tetrahydro-1H-[1,4]diazepino[1,2-a]indole-8-carboxamide]"
21,5.96,"C[C@@H]1CNC(=O)c2cc3ccc(C(=O)Nc4cccnc4)cc3n2[C@H]1C (relative stereo) [Example 151, Trans-4,5-dimethyl-1-oxo-N-(pyridin-3-yl)-2,3,4,5-tetrahydro-1H-[1,4]diazepino[1,2-a]indole-8-carboxamide]"
